For data set [1], the system named is Leishmania donovani. As to the kind of experiment: Antileishmanial activity against Leishmania donovani axenic amastigotes infected in mouse J774 cells measured after 72 hrs by Draq5 staining based high content screening assay. It is filed as functional, organism-based. The note with it: J774, 72 h.
Data set [2] concerns Leishmania donovani. As to the kind of experiment: Antileishmanial activity against Leishmania donovani axenic amastigotes at 2.5 uM after 72 hrs by Celltiter reagent based assay relative to control. The format is functional.
In data set [3] the test system is J774. As to the kind of experiment: Cytotoxicity against mouse J774 cells.
Data set [4] is described as follows: Selectivity index, ratio of IC50 for mouse J774 cells to IC50 for Leishmania donovani axenic amastigotes infected in mouse J774 cells. It is filed as toxicity, cell-based. As to conditions: read-out: Ratio IC50.
The test system of data set [5] is Leishmania donovani. As to the kind of experiment: Antileishmanial activity against Leishmania donovani axenic amastigotes at 5 uM after 72 hrs by Celltiter reagent based assay relative to control. The format is functional.

Some results are limits rather than exact numbers.

For orientation: IC50 means the midpoint of a concentration-inhibition curve. Low readings indicate higher potency, high ones lower potency. In general, inhibition refers to the change of the read-out against control, counted positive when it falls. Read a high inhibition as a response far below the control. For the molecule `CCCCCCCN1C(=N)N(CCCC[C@H]2CNC(=N)N2CCc2cccc(C(F)(F)F)c2)C[C@@H]1CC1CCCCC1`, the IC50 is more than 5 µM in data set [1] and 50 µM in data set [3]. In data set [2], this molecule showed an inhibition at 2.5 µM of 0%. Besides, in data set [4], the selectivity ratio is less than 10. For the same molecule, the inhibition at 5 µM in data set [5] was 6%.

As to `N=C1NC[C@H](CCCCN2C[C@H](CC3CCCCC3)N(CCCCC3CCCCC3)C2=N)N1CCc1cccc(C(F)(F)F)c1`, the figures for the IC50 in data set [1] and in data set [3] were 1.3 µM and 26 µM, respectively. Moreover, in data set [2], the inhibition at 2.5 µM came out at 0%. The selectivity ratio in data set [4] is 14. The molecule further yielded an inhibition at 5 µM in data set [5] of 94%.

For the molecule `N=C1NC[C@H](CCCCN2C[C@H](CC3CCCCC3)N(CCc3ccc(-c4ccccc4)cc3)C2=N)N1CCc1cccc(C(F)(F)F)c1`, the values for the IC50 in data set [1] and in data set [3] were more than 5 µM and 46 µM, respectively. The same molecule came in with an inhibition at 2.5 µM in data set [2] of 35%. Further, the selectivity ratio in data set [4] was less than 9. Testing at 5 µM in data set [5] gave an inhibition of 97%.

As to `CCCCCCCN1C(=N)N(CCCC[C@H]2CNC(=N)N2CCCCC2CCCCC2)C[C@@H]1CCCC`, the IC50 came out at 1.3 µM in data set [1] and 16 µM in data set [3]. The same molecule showed an inhibition at 2.5 µM in data set [2] of 68%. The selectivity ratio in data set [4] is 12. The molecule also registered an inhibition at 5 µM in data set [5] of 98%.

Turning to `CCCC[C@H]1CN(CCCC[C@H]2CNC(=N)N2CCCCC2CCCCC2)C(=N)N1CCCCC1CCCCC1`, the IC50 in data set [1] was more than 5 µM; in data set [3], 15 µM. In data set [2], this molecule displayed an inhibition at 2.5 µM of 71%. For the same molecule, the selectivity ratio in data set [4] is less than 3. For the same molecule, at 5 µM the inhibition in data set [5] was 99%.

With `CCCC[C@H]1CN(CCCC[C@H]2CNC(=N)N2CCCCC2CCCCC2)C(=N)N1CCc1ccc(-c2ccccc2)cc1`, the concentration for half-maximal inhibition (IC50) is 5 µM in data set [1] and 12 µM in data set [3]. This molecule registered an inhibition at 2.5 µM in data set [2] of 78%. The selectivity ratio in data set [4] worked out at 2. The same molecule yielded an inhibition at 5 µM in data set [5] of 98%.

With `CCCCCCCN1C(=N)N(CCCC[C@H]2CNC(=N)N2CCCCC2CCCCC2)C[C@@H]1CC1CCCCC1`, the results for the IC50 in data set [1] and in data set [3] were 0.7 µM and 25 µM, respectively. In data set [2], this molecule registered an inhibition at 2.5 µM of 97%. Also, the selectivity ratio in data set [4] was found to be 36. In addition, the inhibition at 5 µM in data set [5] came out at 95%.

As for `N=C1NC[C@H](CCCCN2C[C@H](CC3CCCCC3)N(CCCCC3CCCCC3)C2=N)N1CCCCC1CCCCC1`, the IC50 in data set [1] is more than 5 µM; in data set [3] it was 24 µM. 2.5 µM produced 77% inhibition in data set [2]. In addition, the selectivity ratio in data set [4] is less than 5. This molecule yielded an inhibition at 5 µM in data set [5] of 95%.

In the case of `N=C1NC[C@H](CCCCN2C[C@H](CC3CCCCC3)N(CCc3ccc(-c4ccccc4)cc3)C2=N)N1CCCCC1CCCCC1`, the IC50 in data set [1] worked out at 0.3 µM; in data set [3], 20 µM. Also, the inhibition at 2.5 µM in data set [2] was 70%. In addition, the selectivity ratio in data set [4] was 69. The molecule also gave an inhibition at 5 µM in data set [5] of 95%.

Consider `CCCC[C@H]1CN(CCCC[C@H]2CNC(=N)N2CCC23CC4CC(CC(C4)C2)C3)C(=N)N1CCCCC1CCCCC1`, for which the half-inhibitory concentration (IC50) in data set [1] was determined as 0.6 µM; in data set [3], 27 µM. In data set [2], at 2.5 µM the inhibition was 11%. For the same molecule, the selectivity ratio in data set [4] is 41. The same molecule displayed an inhibition at 5 µM in data set [5] of 8%.

Take `CCCC[C@H]1CN(CCCC[C@H]2CNC(=N)N2CCC23CC4CC(CC(C4)C2)C3)C(=N)N1CCc1ccc(-c2ccccc2)cc1`: the IC50 came to 0.9 µM in data set [1] and 22 µM in data set [3]. The molecule further had an inhibition at 2.5 µM in data set [2] of 0%. Further, the selectivity ratio in data set [4] stood at 25. Besides, the inhibition at 5 µM in data set [5] was 0%.

Regarding `N=C1NC[C@H](CCCCN2C[C@@H](Cc3ccc4ccccc4c3)N(CCCCC3CCCCC3)C2=N)N1CCc1cccc(C(F)(F)F)c1`, the IC50 was found to be 1.8 µM in data set [1] and 50 µM in data set [3]. The molecule further registered an inhibition at 2.5 µM in data set [2] of 6%. The selectivity ratio in data set [4] was 28. This molecule also had an inhibition at 5 µM in data set [5] of 75%.

`CCCCCCCN1C(=N)N(CCCC[C@H]2CNC(=N)N2CCCCC2CCCCC2)C[C@H]1Cc1ccc2ccccc2c1`: the figures for the IC50 in data set [1] and in data set [3] were 1.3 µM and 50 µM, respectively. Also, the inhibition at 2.5 µM in data set [2] was 6%. Moreover, in data set [4], the selectivity ratio was found to be 38. Also, the inhibition at 5 µM in data set [5] was found to be 97%.

As to `CCCCCCCN1C(=N)N(CCCC[C@H]2CNC(=N)N2CCC23CC4CC(CC(C4)C2)C3)C[C@@H]1CCCC`, the values for the half-inhibitory concentration (IC50) in data set [1] and in data set [3] were more than 5 µM and 32 µM, respectively. For the same molecule, the inhibition at 2.5 µM in data set [2] stood at 96%. Further, the selectivity ratio in data set [4] is less than 6. The molecule also displayed an inhibition at 5 µM in data set [5] of 94%.

For `N=C1NC[C@H](CCCCN2C[C@@H](Cc3ccc4ccccc4c3)N(CCc3ccc(-c4ccccc4)cc3)C2=N)N1CCc1cccc(C(F)(F)F)c1`, the IC50 in data set [1] was found to be 1.3 µM; in data set [3], 50 µM. Further, the inhibition at 2.5 µM in data set [2] stood at 0%. Also, in data set [4], the selectivity ratio came to 39. The molecule further had an inhibition at 5 µM in data set [5] of 0%.

As to `N=C1NC[C@H](CCCCN2C[C@@H](Cc3ccc4ccccc4c3)N(CCCCC3CCCCC3)C2=N)N1CCCCC1CCCCC1`, the half-maximal inhibitory concentration (IC50) in data set [1] is 0.9 µM; in data set [3], 50 µM. In data set [2], this molecule gave an inhibition at 2.5 µM of 0%. Also, in data set [4], the selectivity ratio is 56. The inhibition at 5 µM in data set [5] was 0%.

Consider `N=C1NC[C@H](CCCCN2C[C@@H](Cc3ccc4ccccc4c3)N(CCc3ccc(-c4ccccc4)cc3)C2=N)N1CCCCC1CCCCC1`, for which the IC50 in data set [1] was more than 5 µM; in data set [3] it was 34 µM. In data set [2], this molecule came in with an inhibition at 2.5 µM of 15%. Besides, the selectivity ratio in data set [4] is less than 7. This molecule showed an inhibition at 5 µM in data set [5] of 95%.
